Results as given in US12522593B2, “Azacycloalkyl carbonyl cyclic amine compound” (Alivexis, Inc., priority 2022, dated 2026).

How the values were obtained:
human recombinant CTSC = human recombinant CTSC (Homo sapiens (Human), UniProt P53634); experiment: CTSC inhibition assay (in vitro), fluorescent substrate GF-AFC; assay type: biochemical; details: 30 μmol/L GF-AFC, pH 5.0, 25° C.
Procedure: 1. CTSC Inhibition Assay (In Vitro)
A test specimen was evaluated by a CTSC inhibition assay using a fluorescent substrate GF-AFC (Gly-Phe-7-Amino-4-trifluoromethylcoumarin, MP Biomedical, 03AFC03325). Since the GF-AFC is converted by CTSC to aminotrifluoromethylcoumarin having a specific fluorescence wavelength and the produced amount is proportional to CTSC activity, quantitative analysis was performed by measuring a fluorescence intensity with a plate reader. CTSC inhibition assay for each compound was performed using a polystyrene-made non-adhesive surface-treated black 384 well plate under the following conditions.
A human recombinant CTSC (R&D systems, 1071-CY) was dissolved in a CTSC active cocktail (20 ng/mL of human recombinant cathepsin L (R&D systems, 952-CY, 25 mmol/L MES/NaOH (pH: 6.0), 5 mmol/L dithiothreitol (DTT)) so as to be 100 ng/mL and incubated at 18° C. for 30 minutes. The solution was diluted with a CTSC assay buffer (50 mmol/L MES/NaOH (pH: 5.0), 50 mmol/L NaCl, 0.001% Triton X-100, mmol/L DTT) so as to be 2 ng/mL in a case of performing CTSC inhibition assay.
The test specimen was dissolved in dimethylsulfoxide (DMSO) at 10 mmol/L to prepare a stock solution. In a case where a solution in which the stock solution was diluted 15-fold with DMSO was used as the maximum evaluation concentration (0.667 mmol/L), 5-fold dilution was repeated in DMSO from the solution to prepare a serially diluted solution. 248.8 μL of the CTSC assay buffer was added to 1.12 μL of the serially diluted sample prepared in the DMSO to prepare a solution of a CTSC inhibition assay compound.
The final composition of the CTSC inhibition assay mixture was 0.66 ng/mL activated CTSC, 50 mmol/L MES/NaOH (pH: 5.0), 50 mmol/L NaCl, 0.001% Triton X-100, 5 mmol/L DTT, 30 μmol/L GF-AFC, and 0.15% DMSO, and the procedure was as follows. That is, 4 μL of the compound solution and 4 μL of the 2 ng/mL activated CTSC solution were mixed with each other in a 384 well plate and incubated at 25° C. for 30 minutes. Thereafter, 4 μL of the GF-AFC solution dissolved in the CTSC assay buffer was added to the mixture so as to be 90 μmol/L. After mixing to be uniform, a fluorescence emission intensity at 505 nm in a case of being excited at 390 nm after incubating at 25° C. for 1 hour was measured with a plate reader. A 4-parameter regression analysis was performed with GraphPad Prism (manufactured by GraphPad Software) from a plot of the fluorescence intensity at 505 nm and the sample concentration, and an IC50 value was calculated.
Results of test compounds of Formula (I) are shown in Table 1 as IC50 (nM) values for which 50% inhibition concentration is calculated based on CTSC inhibition (%). In the table, Ex indicates an example number.

CTSC in U937 cells = CTSC in U937 cells (Homo sapiens (Human), UniProt P53634); experiment: Intracellular CTSC inhibition assay (in vitro), LLOMe-induced cell death in U937 cells; assay type: cell-based; details: 3 hours culture, CellTiter-Glo
Procedure: 2. Intracellular CTSC Inhibition Assay (In Vitro)
A test specimen was evaluated by a degree of cell death in a case where a substrate LLOMe (L-Leucyl-L-Leucine methyl ester, hydrobromide salt, Sigma, 555045152) was added to U937 cells. The LLOMe is taken up into the cells by endocytosis and cleaved by CTSC. A product thereof induces lysosomal damage in cells and causes cell death in leukocytes and the like. Therefore, since the degree of cell death correlates with an amount of degradation of LLOMe, that is, with CTSC activity, by quantitatively analyzing the cell death, CTSC inhibitory activity of the test specimen in the cell was determined. CTSC inhibition assay was performed using a polystyrene-made white 384 well plate.
As the test specimen, a stock solution dissolved in DMSO was prepared so as to be 0.2 mmol/L, and in a case where a solution in which the stock solution was diluted 50-fold with a RPMI-1640 medium including 10% FBS was used as the maximum evaluation concentration (4000 nmol/L), a serially diluted solution was prepared by diluting the solution 3-fold with the medium. Thereafter, a 4-fold concentrated test specimen solution with the target final concentration was prepared.
U937 cells were cultured in a RPMI-1640 medium including 10% FBS, and diluted to prepare 90,000 cells/mL of cell suspension on the day of assay. 10 μL of the cell suspension was seeded per well. Next, 10 μL of the test specimen solution having a concentration 4 times the target final concentration was added thereto, and the mixture was allowed to stand for 30 minutes. Thereafter, 20 μL of a 300 μmol/L LLOMe solution dissolved in a RPMI-1640 medium including 10% FBS was added thereto, and the cells were cultured for 3 hours. After completion of the culture, 40 μL of CellTiter-Glo (registered trademark) reagent (Promega, G7570) was added to each well and mixed. After 15 minutes, 20 μL of the reaction solution in each well was transferred to a white 384 well plate, and a chemiluminescence intensity was measured with a plate reader. A 4-parameter regression analysis was performed with GraphPad Prism (manufactured by GraphPad Software) from a plot of the luminescence intensity and the sample concentration, and an IC50 value was calculated.
Results of test compounds of Formula (1) are shown in Table 2 as IC50 (nM) values for which 50% inhibition concentration is calculated based on CTSC inhibition (%). In the table, Ex indicates an example number.

Chain of human recombinant CTSC (P53634 25-134): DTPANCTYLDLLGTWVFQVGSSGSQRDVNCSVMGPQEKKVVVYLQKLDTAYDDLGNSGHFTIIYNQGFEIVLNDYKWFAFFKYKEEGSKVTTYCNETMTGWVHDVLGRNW
Chain of human recombinant CTSC (P53634 231-394): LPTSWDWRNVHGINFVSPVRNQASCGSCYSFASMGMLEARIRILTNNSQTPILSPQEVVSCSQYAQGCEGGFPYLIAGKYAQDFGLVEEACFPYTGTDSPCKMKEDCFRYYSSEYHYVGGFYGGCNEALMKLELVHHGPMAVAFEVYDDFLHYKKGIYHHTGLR
Chain of human recombinant CTSC (P53634 395-463): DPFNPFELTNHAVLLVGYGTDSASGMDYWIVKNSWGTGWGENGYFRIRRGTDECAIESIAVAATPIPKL
Chain of CTSC in U937 cells (P53634 25-463): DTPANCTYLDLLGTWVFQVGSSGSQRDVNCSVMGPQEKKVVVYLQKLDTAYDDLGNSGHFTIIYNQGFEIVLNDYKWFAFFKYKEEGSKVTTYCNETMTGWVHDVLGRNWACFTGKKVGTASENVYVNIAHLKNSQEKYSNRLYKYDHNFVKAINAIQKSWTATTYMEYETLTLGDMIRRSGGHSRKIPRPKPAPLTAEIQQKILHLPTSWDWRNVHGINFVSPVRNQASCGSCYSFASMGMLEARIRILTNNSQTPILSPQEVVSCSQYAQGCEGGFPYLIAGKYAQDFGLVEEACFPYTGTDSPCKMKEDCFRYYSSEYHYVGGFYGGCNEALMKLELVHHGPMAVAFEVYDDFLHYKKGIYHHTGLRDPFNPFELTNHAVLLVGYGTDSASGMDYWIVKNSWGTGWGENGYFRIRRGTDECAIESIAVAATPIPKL

Structure (SMILES)	IC50 (human recombinant CTSC) [nM]	IC50 (CTSC in U937 cells) [nM]
Cc1ccc(C2(C(=O)NCC3CCC(F)(F)CC3)CCN(C(=O)[C@@H]3CC[C@@]4(CCO4)CN3)CC2)cc1 [Example 84]	1.25	1.92
CN(C1(c2nc(C3CC(F)(F)C3)no2)CCN(C(=O)[C@@H]2C[C@@H](O)C3(CCC3)CN2)CC1)S(C)(=O)=O [Example 78]	5.68	129
O=C([C@@H]1C[C@@H](O)C2(CCC2)CN1)N1CCC(c2nc(C3CC(F)(F)C3)no2)(N2CCOCC2)CC1 [Example 65]	4.15	30.1
O=C([C@@H]1C[C@@H](O)C2(CCC2)CN1)N1CCC(c2noc(C3CC(F)(F)C3)n2)(c2cccs2)CC1 [Example 70]	1.63	1.1
CC(C)C1(c2noc(C3CC(F)(F)C3)n2)CCN(C(=O)[C@@H]2C[C@@H](O)C3(CCC3)CN2)CC1 [Example 5]	1.08	1.01
Cc1ccc(C2(c3nc(C4CC(F)(F)C4)no3)CCN(C(=O)[C@@H]3C[C@@H](O)C4(CCC4)CN3)CC2)cc1 [Example 83]	1.47	0.23
Cc1cnn(C2(c3noc(C4CC(F)(F)C4)n3)CCN(C(=O)[C@@H]3C[C@@H](O)C4(CCC4)CN3)CC2)c1 [Example 71]	3.73	5.63
CC(C)C1(C(=O)NCC2CCC(F)(F)CC2)CN(C(=O)[C@@H]2C[C@@H](O)C3(CCC3)CN2)C1 [Example 20]	0.83	227
O=C([C@@H]1C[C@@H](O)C2(CCC2)CN1)N1CCC(c2nccc(-n3cc(F)cn3)n2)CC1 [Example 99]	4.15	1.12
O=C([C@@H]1C[C@@H](O)C2(CCC2)CN1)N1CCC(c2noc(C3CCOCC3)n2)(C(F)(F)F)CC1 [Example 61]	5.72	1.75
CC(C)C1(c2nc(C3CC(F)(F)C3)no2)CCN(C(=O)[C@@H]2CC[C@@]3(CCO3)CN2)CC1 [Example 9]	5.09	11.4
CC(C)C1(c2nnc(C3CCC(F)(F)CC3)o2)CCN(C(=O)[C@@H]2C[C@@H](O)C3(CCC3)CN2)CC1 [Example 14]	1.35	4
O=C([C@@H]1C[C@@H](O)C2(CCC2)CN1)N1CCC(C(=O)N2CCOC3(CC3)C2)(C(F)(F)F)CC1 [Example 32]	25.5	8.84
O=C([C@@H]1C[C@@H](O)C2(CCC2)CN1)N1CCC(c2noc(C3CCCCO3)n2)(C(F)(F)F)CC1 (stereo partly shown) [Example 59]	3.61	0.7
O=C([C@@H]1C[C@@H](O)C2(CCC2)CN1)N1CCC(c2noc(C3CCC(F)(F)CC3)n2)(C(F)(F)F)CC1 [Example 31, (4-(5-(4,4-Difluorocyclohexyl)-1,2,4-oxadiazol-3-yl)-4-(trifluoromethyl)piperidin-1-yl)((7S,9R)-9-hydroxy-6-azaspiro[3.5]nonan-7-yl)methanone]	0.31	0.22
CC(C)C1(c2noc(C3CCC(F)(F)CC3)n2)CCN(C(=O)[C@@H]2CCC3(CC3)CN2)CC1 [Example 46]	53.5	42.5

Structure (SMILES)	IC50 (human recombinant CTSC) [nM]	IC50 (CTSC in U937 cells) [nM]
CC(C)C1(c2noc(C3CCC(F)(F)CC3)n2)CCN(C(=O)[C@@H]2CC[C@@]3(CCO3)CN2)CC1 [Example 86]	1.43	1.06
CC1(C)CN[C@H](C(=O)N2CCC(c3nc(C4CCC(F)(F)CC4)no3)(C(F)(F)F)CC2)C[C@H]1O [Example 57]	3.57	0.55
CS[C@@H]1CN[C@H](C(=O)N2CCC(c3noc(C4CCC(F)(F)CC4)n3)(C(C)C)CC2)C1 [Example 28]	254	596
CC1(c2nc(C3(C(F)(F)F)CCN(C(=O)[C@@H]4C[C@@H](O)C5(CCC5)CN4)CC3)no2)CC(F)(F)C1 [Example 45]	1.88	0.17
O=C([C@@H]1C[C@@H](O)C2(CCC2)CN1)N1CCC(C(=O)NCC2CCC(F)(F)CC2)(C(F)(F)F)CC1 [Example 22]	1.03	20.8
COc1cccc(-n2nnc(C3CCN(C(=O)[C@@H]4C[C@@H](O)C5(CCC5)CN4)CC3)n2)c1 [Example 100]	5.4	3.48
O=C([C@@H]1C[C@@H](O)C2(CCC2)CN1)N1CCC(c2cn(-c3ccc(F)cc3)nn2)CC1 [Example 98]	4.15	3.8
CC(C)C1(c2nc(C3CCC(F)(F)CC3)no2)CN(C(=O)[C@@H]2CC[C@@]3(CCO3)CN2)C1 [Example 21]	2.51	4.78
CC(C)C1(c2noc(C3CCC3)n2)CCN(C(=O)[C@@H]2C[C@@H](O)C3(CCC3)CN2)CC1 [Example 58]	2.55	0.56
O=C([C@@H]1C[C@@H](O)C2(CCC2)CN1)N1CCC(c2noc(C3CCC(F)(F)CO3)n2)(C(F)(F)F)CC1 (stereo partly drawn) [Example 63, (4-(5-(5,5-Difluorotetrahydro-2H-pyran-2-yl)-1,2,4-oxadiazol-3-yl)-4-(trifluoromethyl)piperidin-1-yl)((7S,9R)-9-hydroxy-6-azaspiro[3.5]nonan-7-yl)methanone]	1.85	1.01
C[C@]1(F)C[C@H](c2nc(C3(C(F)(F)F)CCN(C(=O)[C@@H]4C[C@@H](O)C5(CCC5)CN4)CC3)no2)C1 [Example 49]	4.43	0.35
CC(C)C1(c2noc(C3CCC(F)(F)CC3)n2)CCN(C(=O)[C@@H]2C[C@H](O)CN2)CC1 [Example 25]	> 200	> 200
O=C([C@@H]1C[C@@H](O)C2(CCC2)CN1)N1CCC(C(=O)N2CC[C@H](C(F)(F)F)C2)(C(F)(F)F)CC1 [Example 55]	4.4	3.79
CC(C)C1(c2noc(C3CCC(F)(F)CC3)n2)CCN(C(=O)[C@@H]2C[C@@H](O)CCN2)CC1 [Example 34]	> 1000	> 333
O=C([C@@H]1C[C@@H](O)C2(CCC2)CN1)N1CCC(c2nccc(N3CCC(F)(F)CC3)n2)CC1 [Example 94]	0.37	3.86
CC1(C)CN[C@H](C(=O)N2CCC(c3noc(C4CCC(F)(F)CC4)n3)(C3CC3)CC2)C[C@H]1O [Example 80, (4-Cyclopropyl-4-(5-(4,4-Difluorocyclohexyl)-1,2,4-oxadiazol-3-yl)piperidin-1-yl)((2S,4R)-4-hydroxy-5,5-dimethylpiperidin-2-yl)methanone]	1.86	0.65
